The subject of series [1] is Mycobacterium smegmatis strain mc2155 (Msm).
Series [2] in a line: Serum stability assay. Conditions: mouse serum, 37 °C, 1.0 mM peptide; time points 0, 15, 30, 60 min; RP-HPLC (C8), AUC normalized to internal standard Fmoc-L-phenylalanine. The series is classed as in vitro ADME. The procedure:
was added to the system. The systems were prepared using the CHARMM scripts provided by CHARMM-GUI.4 The CHARMM36m force field5 was employed for the MD simulations. After energy minimization and 500 ps equilibration, a 100 ns production run was performed. All production MD simulations were performed for the NPT ensemble at 303.15 K and 1 atm using NAMD3. Long-range electrostatic interactions were treated using the particle mesh Ewald (PME) method 6 while Lennard-Jones (LJ) interactions were managed with a force-based switching function applied between 10 Å and 12 Å. […] Hydrogen bonds between different residues within the same peptide were analyzed using the last 50 ns of the simulation.
Serum stability assay. Time course degradation in mouse serum was evaluated for peptides Lin0, Cyc0, Nmet0 and Nmet9. […]
The samples were then centrifuged at 21,000×g for 5 min. […] 110 μL of the filtrate was then analyzed using Phenomenex Luna 5 µm C8(2) on RP-HPLC; gradient elution in H2O/CH3CN with 0.1% TFA at 1 mL/min. […]
Minimum inhibitory concentration (MIC) assay. […] MIC values were determined both visually and readings of OD (wells OD < 0.1) from a Biotek Synergy H1 microplate reader at 600 nm.

Read-outs that look alike come from different tables or passages of the source. Bridge positions count the residues as written; N and C are the ends. Square brackets hold non-standard residues; d marks the D form. Peptide text beside a SMILES is read from it. * marks the point of attachment. Lys(N3) = [N-]=[N+]=NCCCC[C@H](N)C(=O)O; Azidoacetyl = [N-]=[N+]=NCC(=O)*; NMeF = CN[C@@H](Cc1ccccc1)C(=O)O; NMeL = CN[C@@H](CC(C)C)C(=O)O

In the case of `CC(C)C[C@H](NC(=O)[C@H](CCCCN)NC(=O)CN=[N+]=[N-])C(=O)N[C@@H](CCCCN)C(=O)N(C)[C@@H](CC(C)C)C(=O)N(C)[C@@H](Cc1ccccc1)C(N)=O` [Nmet2] (Azidoacetyl-KLK[NMeL][NMeF]-NH2), the “apparent accumulation across the mycomembrane in Msm” value in series [1] is reported as “increase was even more pronounced”. `CC(C)C[C@@H]1NC(=O)[C@H](CCCCN=[N+]=[N-])NC(=O)CSC[C@@H](C(=O)N[C@@H](Cc2ccccc2)C(N)=O)NC(=O)[C@H](CCCCN)NC(=O)[C@H](CO)NC1=O` [Cyc0] ({CH2CO}-[Lys(N3)]LSKCF-NH2; thioether N-5): the “apparent accumulation across the mycomembrane in Msm” value in series [1] (PAC-MAN, 50 μM compound, 2 h, 37 °C, chase 50 μM Fl-az 1 h, flow cytometry, mean ± SD n = 3) is given as “better accumulation than any other member of this macrocyclic sub-library”. For `CC(=O)N[C@@H](CCCCN=[N+]=[N-])C(=O)N[C@@H](CC(C)C)C(=O)N[C@@H](CO)C(=O)N[C@@H](CCCCN)C(=O)N[C@@H](CO)C(=O)N[C@@H](Cc1ccccc1)C(N)=O` [Lin0] (Ac-[Lys(N3)]LSKSF-NH2), the “time to full degradation in serum” value in series [2] is at most 1 h.

These data come from paper doi:10.1101/2025.01.17.633618, “Systematic Determination of the Impact of Structural Edits on Peptide Accumulation into Mycobacteria” (bioRxiv, 2025).
